Here are results for 12 molecules from paper PMC9532951, “Identification and characterization of a novel SNAT2 (SLC38A2) inhibitor reveals synergy with glucose transport inhibition in cancer cells” (Frontiers in Pharmacology, 2022).

Structures are written as SMILES. Where “and” joins values, the source holds several entries; their conditions need not be identical. Equal values may be shown once.

The test system of one test is SNAT1/2. As to the kind of experiment: FMP assay: depolarisation by amino acid substrates in amino acid depleted HCC1806 cells. The class given is cell-based, human. The settings on record: for FMP fluorescence reading: amino acid 1 mM final; for FMP response as substrate: 1 mM. On the procedure:
The FLIPR Membrane Potential Blue Explorer Kit (Molecular Devices) was used to characterise inhibitors and to optimise a high-throughput compound screen. Cells were seeded at approximately 60,000 cells/well on a 96-well plate and allowed to attach and grow overnight in a cell incubator. […] Cells were then washed once with mHBSS and incubated with 50 µl of the mHBSS-resuspended FMP assay dye and 50 µl of mHBSS (with or without inhibitors) and incubated at room temperature for 30 min. The plate was then placed in an EnSpire Multimode plate reader (PerkinElmer) and four sequential measurements of fluorescence were recorded as a baseline reference. Immediately after the baseline measurements were taken, 25 µl of 5 mM glutamine dissolved in mHBSS was injected into each well and the plate was shaken orbitally for 5 s before a series of consecutive fluorescence measurements were taken. The excitation wavelength was set to 530 nm and the emission was detected at 565 nm. […] After the assay was complete, the liquid content of the plate was carefully removed, and the cell monolayer inspected to ensure it remained intact throughout the course of the assay.

The test system of the next test is SNAT1 and SNAT2. In words: FMP assay: inhibition of glutamine-induced membrane depolarisation in amino acid depleted HCC1806 cells. The settings on record: FMP assay, top hit compounds from the HTS, 9-point dose-response, n = 6. The format is cell-based, human. On the procedure:
The FLIPR Membrane Potential Blue Explorer Kit (Molecular Devices) was used to characterise inhibitors and to optimise a high-throughput compound screen. Cells were seeded at approximately 60,000 cells/well on a 96-well plate and allowed to attach and grow overnight in a cell incubator. […] Cells were then washed once with mHBSS and incubated with 50 µl of the mHBSS-resuspended FMP assay dye and 50 µl of mHBSS (with or without inhibitors) and incubated at room temperature for 30 min. The plate was then placed in an EnSpire Multimode plate reader (PerkinElmer) and four sequential measurements of fluorescence were recorded as a baseline reference. Immediately after the baseline measurements were taken, 25 µl of 5 mM glutamine dissolved in mHBSS was injected into each well and the plate was shaken orbitally for 5 s before a series of consecutive fluorescence measurements were taken. The excitation wavelength was set to 530 nm and the emission was detected at 565 nm. The Δ fluorescent signal reported in the figures was taken 30 s after substrate addition. After the assay was complete, the liquid content of the plate was carefully removed, and the cell monolayer inspected to ensure it remained intact throughout the course of the assay.
IC50 were calculated using equation y=ymax(1−x/x+IC50)

`NC(=O)CCC(N)C(=O)O` (stereo in doubt) [D-glutamine]: the FMP fluorescence reading was 42839 and 39003 and 33523 in the test with SNAT1/2 (t=0 s); 50034 and 45149 and 38644 in the test on SNAT1/2 (t=15 s); 50270 and 45056 and 39117 in the test on SNAT1/2 (t=30 s); 50350 and 45753 and 39233 in the test on SNAT1/2 (t=45 s); 50602 and 45748 and 39437 in the test with SNAT1/2 (t=60 s); 50996 and 45609 and 39481 in the test with SNAT1/2 (t=75 s). Moreover, the FMP fluorescence reading in the test with SNAT1/2 (t=90 s) was 51179 and 45923 and 39430; in the test with SNAT1/2 (t=105 s), 51145 and 45682 and 40002; with SNAT1/2 (t=120 s), 51340 and 46043 and 40162; with SNAT1/2 (t=135 s), 51584 and 46357 and 40097; with SNAT1/2 (t=-15 s) it was 43005 and 38805 and 33297; with SNAT1/2 (t=-30 s, replicates 1-3) it was 42947 and 39128 and 33746.
For `C[C@H](N)C(=O)O` [Alanine], in the test with SNAT1/2, the “FMP response as substrate” value is “strongest response”. Also, the FMP fluorescence reading with SNAT1/2 (t=0 s) was 54596 and 53457 and 39829; with SNAT1/2 (t=15 s) it was 99809 and 107431 and 86655; in the test with SNAT1/2 (t=30 s) it was 104988 and 111613 and 89183; in the test on SNAT1/2 (t=45 s), 107389 and 114043 and 90927; with SNAT1/2 (t=60 s), 109154 and 114952 and 91569; with SNAT1/2 (t=75 s), 110049 and 115127 and 91618. The FMP fluorescence reading with SNAT1/2 (t=90 s) is 110411 and 114906 and 91021; in the test on SNAT1/2 (t=105 s) it was 110237 and 114204 and 90013; in the test with SNAT1/2 (t=120 s), 109638 and 112786 and 88869; in the test with SNAT1/2 (t=135 s), 108521 and 111868 and 87878; in the test with SNAT1/2 (t=-15 s), 54286 and 53641 and 39860; in the test with SNAT1/2 (t=-30 s, replicates 1-3) it was 53991 and 53679 and 39761.
In the case of `N=C(N)NCCC[C@H](N)C(=O)O` [Arginine], the FMP fluorescence reading in the test on SNAT1/2 (t=0 s) is 57601 and 55451 and 44145; in the test on SNAT1/2 (t=15 s), 59785 and 58453 and 46579; in the test with SNAT1/2 (t=30 s), 60283 and 58803 and 46849; in the test with SNAT1/2 (t=45 s) it was 60859 and 58896 and 47284; with SNAT1/2 (t=60 s), 61207 and 59368 and 47582; in the test with SNAT1/2 (t=75 s), 60824 and 59447 and 47575. Besides, the FMP fluorescence reading in the test on SNAT1/2 (t=90 s) is 61207 and 59194 and 47872; in the test with SNAT1/2 (t=105 s), 61703 and 59566 and 47735; in the test on SNAT1/2 (t=120 s), 61529 and 59552 and 47812; with SNAT1/2 (t=135 s) it was 61459 and 60027 and 47987; in the test on SNAT1/2 (t=-15 s), 57812 and 55789 and 44423; with SNAT1/2 (t=-30 s, replicates 1-3), 57675 and 55602 and 44293.
With `CCN1CCN(Cc2nn(-c3ccc(C)c(Cl)c3)c(N)c2-c2ccccc2)CC1` [Compound 55_A], half-maximal inhibition in the test on SNAT1 and SNAT2 (IC50) required 3.84 µM.
On to `C#Cc1cccc(NC(=O)N2CC(S(=O)(=O)N3CCN(C(=O)OC(C)(C)C)CC3)C2)c1` [Compound 55_G], for which the IC50 (as a rule, the point on the concentration scale where inhibition reaches its midpoint) in the test with SNAT1 and SNAT2 turned out to be 83.5 µM.
The same measure, in the same setting: the result for `Cc1sc2nc(CN3CCC(C)CC3)nc(N3CCC(C)CC3)c2c1C` [Compound 56_C] reads 18.4 µM; that for `COC(=O)c1ccc(C(=O)N2CCc3sccc3C2c2ccccc2)s1` (stereo not drawn) [Compound 57_C], 114 µM.
With `N[C@@H](CCC(=O)O)C(=O)O` [Glutamate], the FMP fluorescence reading in the test with SNAT1/2 (t=0 s) is 60032 and 51875 and 43598; in the test on SNAT1/2 (t=15 s), 69207 and 54669 and 51909; in the test with SNAT1/2 (t=30 s), 69328 and 57256 and 51957; in the test with SNAT1/2 (t=45 s), 69976 and 58306 and 52382; in the test with SNAT1/2 (t=60 s), 70448 and 59203 and 52416; with SNAT1/2 (t=75 s), 70747 and 59679 and 52622. The FMP fluorescence reading in the test on SNAT1/2 (t=90 s) is 70473 and 59687 and 53012; in the test with SNAT1/2 (t=105 s), 70925 and 60367 and 52735; with SNAT1/2 (t=120 s), 71220 and 60249 and 53084; in the test on SNAT1/2 (t=135 s) it was 71259 and 60330 and 52832; in the test with SNAT1/2 (t=-15 s) it was 59967 and 51788 and 43666; with SNAT1/2 (t=-30 s, replicates 1-3), 60239 and 51751 and 43455.
On to `NCC(=O)O` [Glycine], for which the “FMP response as substrate” value in the test with SNAT1/2 is on record as “strongest response”. Besides, the FMP fluorescence reading in the test on SNAT1/2 (t=0 s) is 44899 and 49024 and 38114; with SNAT1/2 (t=15 s) it was 85173 and 99097 and 84032; in the test on SNAT1/2 (t=30 s), 91215 and 103676 and 87874; in the test on SNAT1/2 (t=45 s), 94947 and 105684 and 90110; in the test on SNAT1/2 (t=60 s) it was 97113 and 106636 and 90762; in the test on SNAT1/2 (t=75 s), 98961 and 107619 and 91458. The FMP fluorescence reading is 100150 and 108044 and 90972 in the test on SNAT1/2 (t=90 s); 99878 and 107571 and 90946 in the test on SNAT1/2 (t=105 s); 99987 and 106851 and 90990 with SNAT1/2 (t=120 s); 99765 and 106361 and 89148 in the test on SNAT1/2 (t=135 s); 44724 and 48839 and 38339 in the test on SNAT1/2 (t=-15 s); 44368 and 48981 and 38101 in the test on SNAT1/2 (t=-30 s, replicates 1-3).
Consider `CC(C)C[C@H](N)C(=O)O` [Leucine], for which the “FMP response as substrate” value in the test with SNAT1/2 was “weak signal”. For the same molecule, the FMP fluorescence reading is 61522 and 51455 and 48802 with SNAT1/2 (t=0 s); 88098 and 66521 and 74458 in the test with SNAT1/2 (t=15 s); 89784 and 72558 and 75976 in the test with SNAT1/2 (t=30 s); 91395 and 75844 and 77135 in the test with SNAT1/2 (t=45 s); 92447 and 78186 and 77607 in the test with SNAT1/2 (t=60 s); 93485 and 79454 and 77906 with SNAT1/2 (t=75 s). Also, the FMP fluorescence reading is 93344 and 79903 and 78344 in the test with SNAT1/2 (t=90 s); 93716 and 80571 and 78223 with SNAT1/2 (t=105 s); 93656 and 80831 and 77995 in the test with SNAT1/2 (t=120 s); 93514 and 80690 and 77322 in the test with SNAT1/2 (t=135 s); 61387 and 51586 and 49166 in the test with SNAT1/2 (t=-15 s); 61314 and 51367 and 48860 in the test with SNAT1/2 (t=-30 s, replicates 1-3).
Regarding `N[C@@H](Cc1ccccc1)C(=O)O` [Phenylalanine], the “FMP response as substrate” value in the test with SNAT1/2 is listed as “weak signal”. For the same molecule, the FMP fluorescence reading is 56591 and 55422 and 43224 in the test on SNAT1/2 (t=0 s); 73580 and 72052 and 58378 with SNAT1/2 (t=15 s); 74725 and 73471 and 59296 in the test with SNAT1/2 (t=30 s); 75492 and 73818 and 59645 in the test with SNAT1/2 (t=45 s); 76233 and 74445 and 59921 in the test with SNAT1/2 (t=60 s); 76773 and 74969 and 60608 in the test with SNAT1/2 (t=75 s). Moreover, the FMP fluorescence reading was 77388 and 75496 and 60901 in the test with SNAT1/2 (t=90 s); 77493 and 75802 and 61169 in the test on SNAT1/2 (t=105 s); 77831 and 75902 and 61002 in the test with SNAT1/2 (t=120 s); 78078 and 75738 and 60891 with SNAT1/2 (t=135 s); 56780 and 55712 and 43156 with SNAT1/2 (t=-15 s); 56746 and 55392 and 43055 in the test on SNAT1/2 (t=-30 s, replicates 1-3).
Consider `O=C(O)[C@@H]1CCCN1` [Proline], for which the “FMP response as substrate” value with SNAT1/2 is “strongest response”. In addition, the FMP fluorescence reading in the test on SNAT1/2 (t=0 s) was 59025 and 53021 and 43095; in the test on SNAT1/2 (t=15 s) it was 104996 and 86952 and 88962; in the test on SNAT1/2 (t=30 s), 110697 and 98531 and 91551; in the test with SNAT1/2 (t=45 s) it was 113693 and 105110 and 94295; with SNAT1/2 (t=60 s) it was 116376 and 109453 and 95282; with SNAT1/2 (t=75 s), 118353 and 112938 and 95197. Besides, the FMP fluorescence reading in the test on SNAT1/2 (t=90 s) is 118882 and 114320 and 95021; in the test on SNAT1/2 (t=105 s), 119266 and 115087 and 95127; in the test with SNAT1/2 (t=120 s), 119471 and 115780 and 93913; in the test on SNAT1/2 (t=135 s), 119506 and 115226 and 93809; in the test with SNAT1/2 (t=-15 s) it was 58886 and 52711 and 43194; in the test with SNAT1/2 (t=-30 s, replicates 1-3) it was 59126 and 52759 and 43032.
